Results: patent publication US5376637A, “Pharmaceutical preparation containing vasoactive intestinal polypeptide or its analogue” (Sanwa Kagaku Kenkyusho Co., Ltd., priority 1991, dated 1994)

Key:
PCA reaction = experiment: Passive cutaneous anaphylaxis test (PCA reaction); format: in vivo; details: male rat
Experimental: A rat was immunized with egg-albumin suspended in aluminum hydroxide gel in a conventional manner and a blood letting was carried out to obtain an antiserum rich in IgE.
A male rat was anesthetized with ethyl ether and hairs on back were sheared to intradermally inject by 0.1 ml of the antiserum solution (diluted to 5-folds in volume) described in Item (1), at both sides with a certain distance from a medial line on the back. After 72 hours, a mixed solution of egg albumin (5 mg/kg), 2% Evans blue and a test compound (L-Leu^17 ]-VIP-Hse or pure native type VIP) or disodium cromoglycate was injected into a vein, under anesthetized with pentobarbital. After 30 minutes from an occasion of PCA reaction, the experimental animal was killed and pealed-off the skin to obtain a piece of the skin dyed with the coloring matter.
The coloring matter was extracted in accordance with the method described by Katayama ["Microbio. Immunol.", Vol. 22, No. 2, pages 89 (1987)] and an amount thereof was measured at 620 nm in wave length to calculate an inhibition of the PCA reaction.

arterial pressure = experiment: Hypotensing action in anesthetized beagle dog; format: in vivo; details: injection in femoral artery, 0.02-10 μg/kg
Experimental: In a femoral artery of anesthetized beagle dog (body weight: about 10 kg), each of VIP analogues as Test Samples was injected in a dose of 0.02-10 μg/kg and measured an arterial pressure to prepare a chart showing a relation between the dose and change in blood pressure and check an amount of dose which shall cause a reduction of 15 mmHg in blood pressure.

[1] = dose 0.01 mg/kg injected into a vein
[2] = dose 0.1 mg/kg injected into a vein
[3] = dose 1.0 mg/kg injected into a vein

| Structure (SMILES) | Inhibition (%) of PCA reaction (PCA reaction; [1]) | Inhibition (%) of PCA reaction (PCA reaction; [2]) | Inhibition (%) of PCA reaction (PCA reaction; [3]) | amount of dose causing a reduction of 15 mmHg in blood pressure, relative value (native type VIP = 100%) (arterial pressure) |
| --- | --- | --- | --- | --- |
| O=C([O-])c1cc(=O)c2c(OCC(O)COc3cccc4oc(C(=O)[O-])cc(=O)c34)cccc2o1.[Na+].[Na+] [Disodium cromoglycate] | 5% | 28% | 31% |  |
| CC[C@H](C)[C@H](NC(=O)[C@H](CO)NC(=O)[C@H](CC(N)=O)NC(=O)[C@H](CC(C)C)NC(=O)[C@H](Cc1ccc(O)cc1)NC(=O)[C@H](CCCCN)NC(=O)[C@H](CCCCN)NC(=O)[C@@H](NC(=O)[C@H](C)NC(=O)[C@H](CCSC)NC(=O)[C@H](CCC(N)=O)NC(=O)[C@H](CCCCN)NC(=O)[C@H](CCCNC(=N)N)NC(=O)[C@H](CC(C)C)NC(=O)[C@H](CCCNC(=N)N)NC(=O)[C@@H](NC(=O)[C@H](Cc1ccc(O)cc1)NC(=O)[C@H](CC(N)=O)NC(=O)[C@H](CC(=O)O)NC(=O)[C@@H](NC(=O)[C@H](Cc1ccccc1)NC(=O)[C@@H](NC(=O)[C@H](C)NC(=O)[C@H](CC(=O)O)NC(=O)[C@H](CO)NC(=O)[C@@H](N)Cc1c[nH]cn1)C(C)C)[C@@H](C)O)[C@@H](C)O)C(C)C)C(=O)N[C@@H](CC(C)C)C(=O)N[C@@H](CC(N)=O)C(N)=O [Native type VIP, vasoactive intestinal polypeptide] | 23% | 72% | 67% | 100% |
